From the NIST ThermoML archive (doi:10.1021/je400919u)

Conditions: Liquid, Closed cell (Static) method

FCC(F)(F)F [1,1,1,2-tetrafluoroethane]
Conditions | vapor or sublimation pressure [kPa]
258.2 K | 162
262.2 K | 193
272.2 K | 286
282.6 K | 411
292.9 K | 569
302.7 K | 763

O=C=O [carbon dioxide]
Conditions | vapor or sublimation pressure [kPa]
273 K | 3387
283 K | 4406
293 K | 5627
298.1 K | 6323

FC(F)(F)C1(F)OC1(F)F (stereo unspecified) [2,2,3-trifluoro-3-(trifluoromethyl)oxirane]
Conditions | vapor or sublimation pressure [kPa]
273 K | 309
278 K | 366
283 K | 431
288 K | 505
293 K | 588

FC(F)Cl [chlorodifluoromethane]
Conditions | vapor or sublimation pressure [kPa]
273 K | 495
275 K | 528
277 K | 562
279 K | 599
281 K | 637
283 K | 677
285.1 K | 718
286.9 K | 761
289 K | 807
291.1 K | 855
295.1 K | 955
